Test: Measurement of circular dichroism (mean residue ellipticity at 222 nm)
Format: physicochemical
Conditions: 32° C.
From the text: In general, the structure of a polypeptide in an aqueous buffered solution is in constant flux between portions thereof being random coil and alpha-helix configurations. For the polypeptides used in the following examples, the predominant structure is a random coil since the alpha-helix configuration is unstable in the absence of bound surfactant. According to the present invention adding surfactant to an aqueous solution of a polypeptide stabilizes the alpha-helix configuration. Circular dichroism is a measurement of the amount of the alpha-helix configured polypeptide present in the solution. Thus, circular dichroism provides an indirect measurement of the degree of binding of the surfactant to the polypeptide. (See, for example, Epand R. M., Epand R. F., Orlowski R. C., Schuleter R. J., Boni L. T. and Hui S. W., Biochemistry 22, 5074-5084 (1983); Hui, S. W., Epand R. M., Dell K. R., Epand R. F. and Orlowski R. C., Biochimica Biophysica Acta 772, 264-272 (1984); Epand R. M., Epand R. F., and Orlowski R. C., International Journal Peptide Protein Research 25 105-111; Epand R. M., Epand R. F., Orlowski R. C., Seyler J. K. and Colescott R. L., Biochemistry 25, 1964-1968; Epand R. M., Seyler J. K. and Orlowski R. C., European Journal Biochemistry 159, 125-127 (1986); Wiersema P. H., Loeb A. L. and Overbeek, J., Colloid Interface Science 22, 78-99 (1966)).
The surfactant/peptide circular dichroism (CD) spectra were obtained in a 2 mm path-length cell (110-Q-2 Model, AVIV, Lakewood, N.J.) at 32° C. The cell was initially loaded with 0.60 mL of a solution containing about 0.25 mg/mL of the peptide in 10 mM sodium chloroacetate (pH 3.5) or 10 mM sodium borate (pH 9.0). The buffers were selected to minimize the effect of the temperature on the pH of the solution and to minimize light absorption, thereby optimizing the signal-to-noise ratio (SNR). The peptide concentration was determined by spectrophotometry, with log-log correction for light scattering. The surfactant concentration was increased step-wise by titration of concentrated surfactant stock directly into the CD cell, followed by eight inversions of the cell, with the air bubble providing the mixing turbulence. After mixing, the cell was placed into the AVIV 62 CD spectrometer (AVIV, Lakewood, N.J.). In order to approximate temperature and chemical equilibrium, the sample remained in the spectrometer 5 minutes before a reading was taken. The CD spectrum was taken using a band pass of 1 nm, a data interval of 1 nm, and a data averaging time of 10 seconds. The mean residue ellipticity is the ellipticity divided by the path length in cm times the amino acid residue concentration in decimoles/cm^3. See Methods in Enzymology, Vol 130, pp 208-269, Yang et al, "Calculation of Protein Conformation from Circular Dichroism" (1986).
The measurement procedures described above were conducted on an aqueous solution of the protein insulinotropin, with TWEEN® 20 (MW=1126 g/mol) as the surfactant, with the following modifications. The insulinotropin donor solution concentration was 0.12 mg/mL. One test was run in 10 mM sodium borate at pH 9.0 and another test in 10 mM sodium chloroacetate at pH 3.5.
Fractional changes (%δ) are defined as the difference between the reading at a given surfactant concentration (Ec) minus the reading at zero surfactant (E0), the quantity divided by the difference between the reading at saturated surfactant concentration (Es) minus the reading at zero surfactant (E0), i. e. %δ=(Ec -E0)/(Es-E0).
The measurement procedures described earlier were conducted on an aqueous solution of insulinotropin as the agent, and TWEEN® 40 (molecular weight 1282 g/mol) as the surfactant with the following changes. The insulinotropin concentration was initially 0.29 mg/mL, and 0.21 mg/mL after the final TWEEN® 40 addition and the temperature was held at 32° C. Two tests were conducted at two different concentrations of TWEEN® 40. […]

In the case of Salmon Calcitonin [reference compound], the “Ellipticity (mean residue at 222 nm)” value (pH 3.5, 12 mM sodium chloroacetate, dodecyl sulfobetaine 0, calcitonin 0.087 mM) is reported as -4052 deg-cm^2 /dmol, the “Ellipticity (mean residue at 222 nm)” value (pH 3.5, 12 mM sodium chloroacetate, dodecyl sulfobetaine 2.44 mM, calcitonin 0.085 mM) is reported as -4270 deg-cm^2 /dmol and the “Ellipticity (mean residue at 222 nm)” value (pH 3.5, 12 mM sodium chloroacetate, dodecyl sulfobetaine 4.76 mM, calcitonin 0.083 mM) is reported as -7984 deg-cm^2 /dmol. For the same substance, the “Ellipticity (mean residue at 222 nm)” value (pH 3.5, 12 mM sodium chloroacetate, dodecyl sulfobetaine 5.52 mM, calcitonin 0.082 mM) was -8744 deg-cm^2 /dmol, the “Ellipticity (mean residue at 222 nm)” value (pH 3.5, 12 mM sodium chloroacetate, dodecyl sulfobetaine 6.25 mM, calcitonin 0.081 mM) was -9436 deg-cm^2 /dmol and the “Ellipticity (mean residue at 222 nm)” value (pH 3.5, 12 mM sodium chloroacetate, dodecyl sulfobetaine 7.69 mM, calcitonin 0.080 mM) was -10475 deg-cm^2 /dmol. For the same substance, the “Ellipticity (mean residue at 222 nm)” value (pH 3.5, 12 mM sodium chloroacetate, dodecyl sulfobetaine 9.09 mM, calcitonin 0.079 mM) was -11072 deg-cm^2 /dmol, the “Ellipticity (mean residue at 222 nm)” value (pH 3.5, 12 mM sodium chloroacetate, dodecyl sulfobetaine 10.4 mM, calcitonin 0.078 mM) was -11460 deg-cm^2 /dmol and the “Ellipticity (mean residue at 222 nm)” value (pH 3.5, 12 mM sodium chloroacetate, dodecyl sulfobetaine 13.0 mM, calcitonin 0.076 mM) was -11924 deg-cm^2 /dmol. For the same substance, the “Ellipticity (mean residue at 222 nm)” value (pH 3.5, 12 mM sodium chloroacetate, dodecyl sulfobetaine 15.5 mM, calcitonin 0.073 mM) was -12070 deg-cm^2 /dmol, the “Ellipticity (mean residue at 222 nm)” value (pH 3.5, 12 mM sodium chloroacetate, dodecyl sulfobetaine 21.1 mM, calcitonin 0.069 mM) was -12285 deg-cm^2 /dmol and the “Ellipticity (mean residue at 222 nm)” value (pH 3.5, 12 mM sodium chloroacetate, dodecyl sulfobetaine 27.7 mM, calcitonin 0.063 mM) was -12133 deg-cm^2 /dmol. For the same substance, the “Ellipticity (mean residue at 222 nm)” value (pH 5.0, 4 mM piperazine-HCl, dodecyl sulfobetaine 0, calcitonin 0.076 mM) was -3919 deg-cm^2 /dmol, the “Ellipticity (mean residue at 222 nm)” value (pH 5.0, 4 mM piperazine-HCl, dodecyl sulfobetaine 0.83 mM, calcitonin 0.076 mM) was -3950 deg-cm^2 /dmol and the “Ellipticity (mean residue at 222 nm)” value (pH 5.0, 4 mM piperazine-HCl, dodecyl sulfobetaine 1.64 mM, calcitonin 0.075 mM) was -4011 deg-cm^2 /dmol. The “Ellipticity (mean residue at 222 nm)” value (pH 5.0, 4 mM piperazine-HCl, dodecyl sulfobetaine 3.23 mM, calcitonin 0.074 mM) was -5209 deg-cm^2 /dmol, the “Ellipticity (mean residue at 222 nm)” value (pH 5.0, 4 mM piperazine-HCl, dodecyl sulfobetaine 4.76 mM, calcitonin 0.073 mM) was -7108 deg-cm^2 /dmol and the “Ellipticity (mean residue at 222 nm)” value (pH 5.0, 4 mM piperazine-HCl, dodecyl sulfobetaine 6.25 mM, calcitonin 0.072 mM) was -8348 deg-cm^2 /dmol. For the same substance, the “Ellipticity (mean residue at 222 nm)” value (pH 5.0, 4 mM piperazine-HCl, dodecyl sulfobetaine 7.69 mM, calcitonin 0.071 mM) was -9127 deg-cm^2 /dmol, the “Ellipticity (mean residue at 222 nm)” value (pH 5.0, 4 mM piperazine-HCl, dodecyl sulfobetaine 9.77 mM, calcitonin 0.069 mM) was -9915 deg-cm^2 /dmol and the “Ellipticity (mean residue at 222 nm)” value (pH 5.0, 4 mM piperazine-HCl, dodecyl sulfobetaine 12.4 mM, calcitonin 0.067 mM) was -10469 deg-cm^2 /dmol. The “Ellipticity (mean residue at 222 nm)” value (pH 5.0, 4 mM piperazine-HCl, dodecyl sulfobetaine 18.4 mM, calcitonin 0.062 mM) was -10999 deg-cm^2 /dmol, the “Ellipticity (mean residue at 222 nm)” value (pH 5.0, 4 mM piperazine-HCl, dodecyl sulfobetaine 26.4 mM, calcitonin 0.056 mM) was -11188 deg-cm^2 /dmol and the “Ellipticity (mean residue at 222 nm)” value (pH 5.0, 4 mM piperazine-HCl, dodecyl sulfobetaine 35.8 mM, calcitonin 0.049 mM) was -11051 deg-cm^2 /dmol. The “Ellipticity (mean residue at 222 nm)” value (pH 6.5, 15 mM sodium cacodylate, dodecyl sulfobetaine 0, calcitonin 0.071 mmol/l) was -4569 deg-cm^2 /dmol, the “Ellipticity (mean residue at 222 nm)” value (pH 6.5, 15 mM sodium cacodylate, dodecyl sulfobetaine 3.28 mmol/l, calcitonin 0.070 mmol/l) was -6725 deg-cm^2 /dmol and the “Ellipticity (mean residue at 222 nm)” value (pH 6.5, 15 mM sodium cacodylate, dodecyl sulfobetaine 6.45 mmol/l, calcitonin 0.068 mmol/l) was -10182 deg-cm^2 /dmol. The “Ellipticity (mean residue at 222 nm)” value (pH 6.5, 15 mM sodium cacodylate, dodecyl sulfobetaine 9.52 mmol/l, calcitonin 0.067 mmol/l) was -11095 deg-cm^2 /dmol, the “Ellipticity (mean residue at 222 nm)” value (pH 6.5, 15 mM sodium cacodylate, dodecyl sulfobetaine 12.5 mmol/l, calcitonin 0.066 mmol/l) was -11386 deg-cm^2 /dmol and the “Ellipticity (mean residue at 222 nm)” value (pH 6.5, 15 mM sodium cacodylate, dodecyl sulfobetaine 18.2 mmol/l, calcitonin 0.064 mmol/l) was -11744 deg-cm^2 /dmol. For the same substance, the “Ellipticity (mean residue at 222 nm)” value (pH 6.5, 15 mM sodium cacodylate, dodecyl sulfobetaine 28.6 mmol/l, calcitonin 0.061 mmol/l) was -11862 deg-cm^2 /dmol and the “Ellipticity (mean residue at 222 nm)” value (pH 6.5, 15 mM sodium cacodylate, dodecyl sulfobetaine 42.1 mmol/l, calcitonin 0.056 mmol/l) was -11844 deg-cm^2 /dmol.

— US6328728A, “Composition and method for enhancing electrotransport agent delivery” (Alza Corporation, priority 1997, dated 2001)
